Reference: the NIST ThermoML archive (doi:10.1016/j.jct.2015.09.030)

How the values were obtained:
[1] = Liquid; for viscosity: Falling or rolling sphere viscometry; for mass density: Vibrating tube method
[2] = xn = mol fraction of the nth substance listed; conditions: 100 kPa, Liquid, x2 = 0; for mass density: Vibrating tube method; for viscosity: Falling or rolling sphere viscometry

CO [methanol]
[1], 100 kPa
Conditions	mass density [kg/m3]	viscosity [mPa·s]
290.15 K	797.3	0.6069
293.15 K	793.5	0.5853
295.15 K	790.8	0.5571
298.15 K	786.8	0.5446
303.15 K	781.4	0.5122
308.15 K	777.3	0.4794
313.15 K	772.1	0.4508
318.15 K	767.7	0.4317
323.15 K	762.1	0.4051

CO [methanol] + CCCCCCCCCCCCCC[P+](CCCCCC)(CCCCCC)CCCCCC.[Cl-]
[2]
Conditions	mass density [kg/m3]	viscosity [mPa·s]
290.15 K	797.3	–
293.15 K	793.5	–
295.15 K	790.8	0.557
298.15 K	786.8	0.544
303.15 K	781.4	0.512
308.15 K	777.3	0.479
313.15 K	772.1	0.451

CCCCCCCCCCCCCC[P+](CCCCCC)(CCCCCC)CCCCCC.[Cl-] [trihexyl(tetradecyl)phosphonium chloride]
[1], 101.33 kPa
Conditions	mass density [kg/m3]	viscosity [mPa·s]
290.15 K	897.5	–
293.15 K	895.8	1996
295.15 K	894.6	1996
298.15 K	892.8	1683
303.15 K	889.8	1174
308.15 K	886.9	824.1
313.15 K	883.9	593.7
318.15 K	880.8	399.9
323.15 K	878	325.9
